In patent publication US9359358B2, “Cyclohexyl azetidine derivatives as JAK inhibitors” (Incyte Holdings Corporation, priority 2011, dated 2016):
Counter-ions that a name gives are not always drawn.

Legend:
human JAK2 = biological target: T1, human JAK2 (Homo sapiens, UniProt O60674); test: In Vitro JAK Kinase Assay (HTRF, phosphorylation of a biotinylated peptide), JAK2; type: biochemical; settings: assay of Example A
T1 construct: JAK2 (a.a. 828-1132); His tag (N); made in house; host or cells: insect cells (baculovirus)
Method: (§1) The catalytic activity of JAK1, JAK2 or JAK3 was assayed by measuring the phosphorylation of a biotinylated peptide. The phosphorylated peptide was detected by homogenous time resolved fluorescence (HTRF). […] Reactions were carried out at room temperature for 1 hour and then stopped with 20 μL 45 mM EDTA, 300 nM SA-APC, 6 nM Eu-Py20 in assay buffer (Perkin Elmer, Boston, Mass.). Binding to the Europium labeled antibody took place for 40 minutes and HTRF signal was measured on a Fusion plate reader (Perkin Elmer, Boston, Mass.).

human JAK1 = biological target: T2, human JAK1 (Homo sapiens, UniProt P23458); test: In Vitro JAK Kinase Assay (HTRF, phosphorylation of a biotinylated peptide), JAK1; type: biochemical; settings: catalytic domain a.a. 837-1142, assay of Example A
T2 construct: human JAK1 (a.a. 837-1142); His tag (N); made in house; host or cells: insect cells (baculovirus)
Method: as §1

T1 sequence (O60674 828-1132): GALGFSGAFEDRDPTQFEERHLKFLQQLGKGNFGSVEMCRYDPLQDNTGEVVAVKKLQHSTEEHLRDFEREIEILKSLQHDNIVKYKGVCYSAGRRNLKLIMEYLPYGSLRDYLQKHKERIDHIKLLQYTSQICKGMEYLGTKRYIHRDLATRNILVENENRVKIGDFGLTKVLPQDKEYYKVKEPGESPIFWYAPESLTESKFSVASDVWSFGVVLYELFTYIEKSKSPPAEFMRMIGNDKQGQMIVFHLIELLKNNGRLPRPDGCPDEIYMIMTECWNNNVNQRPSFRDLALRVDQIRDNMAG
T2 sequence (P23458 849-1154): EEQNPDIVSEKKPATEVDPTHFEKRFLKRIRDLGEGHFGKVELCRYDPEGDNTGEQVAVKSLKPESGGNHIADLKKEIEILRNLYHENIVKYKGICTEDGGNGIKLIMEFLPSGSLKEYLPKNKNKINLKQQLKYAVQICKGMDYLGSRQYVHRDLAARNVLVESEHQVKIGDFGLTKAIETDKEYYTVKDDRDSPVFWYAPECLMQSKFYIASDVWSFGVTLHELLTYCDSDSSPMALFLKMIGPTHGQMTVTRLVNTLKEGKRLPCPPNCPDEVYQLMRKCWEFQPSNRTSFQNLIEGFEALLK

| JAK2/JAK1 IC50 ratio (human JAK2; Table 4) | IC50 (human JAK1; Table 4) | JAK2/JAK1 IC50 ratio (human JAK2; Table 5) | IC50 (human JAK1; Table 5) | SMILES |
| --- | --- | --- | --- | --- |
| ≧10 | < 10 nM | – | – | N#CCC1(n2cc(-c3ncnc4[nH]ccc34)cn2)CN([C@H]2CC[C@@H](Oc3cc(OCCO)nc(C(F)(F)F)n3)CC2)C1 [Example 56, {1-(cis-4-{[6-(2-hydroxyethoxy)-2-(trifluoromethyl)pyrimidin-4-yl]oxy}cyclohexyl)-3-[4-(7H-pyrrolo[2,3-d]pyrimidin-4-yl)-1H-pyrazol-1-yl]azetidin-3-yl}acetonitrile bis(trifluoroacetate) (salt)] |
| ≧10 | < 10 nM | – | – | CC(O)c1cc(OC2CCC(N3CC(CC#N)(n4cc(-c5ncnc6[nH]ccc56)cn4)C3)CC2)nc(C(F)(F)F)n1 (single isomer, unassigned) [Example 58a, {1-(cis-4-{[6-(1-hydroxyethyl)-2-(trifluoromethyl)pyrimidin-4-yl]oxy}cyclohexyl)-3-[4-(7H-pyrrolo[2,3-d]pyrimidin-4-yl)-1H-pyrazol-1-yl]azetidin-3-yl}acetonitrile tris(trifluoroacetate) (salt)] |
| ≧10 | < 10 nM | – | – | C[C@H](O)CNCc1cc(O[C@H]2CC[C@@H](N3CC(CC#N)(n4cc(-c5ncnc6[nH]ccc56)cn4)C3)CC2)nc(C(F)(F)F)n1 [Example 19, {1-(cis-4-{[6-({[(2R)-2-hydroxypropyl]amino}methyl)-2-(trifluoromethyl)pyrimidin-4-yl]oxy}cyclohexyl)-3-[4-(7H-pyrrolo[2,3-d]pyrimidin-4-yl)-1H-pyrazol-1-yl]azetidin-3-yl}acetonitrile tris(trifluoroacetate) (salt)] |
| ≧10 | < 10 nM | – | – | CC(C)(O)c1cc(O[C@H]2CC[C@@H](N3CC(CC#N)(n4cc(-c5ncnc6[nH]ccc56)cn4)C3)CC2)nc(C(F)(F)F)n1 [Example 43, {1-(cis-4-{[6-(1-Hydroxy-1-methylethyl)-2-(trifluoromethyl)pyrimidin-4-yl]oxy}cyclohexyl)-3-[4-(7H-pyrrolo[2,3-d]pyrimidin-4-yl)-1H-pyrazol-1-yl]azetidin-3-yl}acetonitrile bis(trifluoroacetate)] |
| ≧10 | < 10 nM | – | – | CC(O)(CO)c1cc(OC2CCC(N3CC(CC#N)(n4cc(-c5ncnc6[nH]ccc56)cn4)C3)CC2)nc(C(F)(F)F)n1 (single isomer, unassigned) [Example 57a, {1-(cis-4-{[6-(1,2-dihydroxy-1-methylethyl)-2-(trifluoromethyl)pyrimidin-4-yl]oxy}cyclohexyl)-3-[4-(7H-pyrrolo[2,3-d]pyrimidin-4-yl)-1H-pyrazol-1-yl]azetidin-3-yl}acetonitrile tris(trifluoroacetate) (salt)] |
| ≧10 | < 10 nM | – | – | CCNCc1cc(O[C@H]2CC[C@@H](N3CC(CC#N)(n4cc(-c5ncnc6[nH]ccc56)cn4)C3)CC2)nc(C(F)(F)F)n1 [Example 5, {1-(cis-4-{[6-[(Ethylamino)methyl]-2-(trifluoromethyl)pyrimidin-4-yl]oxy}cyclohexyl)-3-[4-(7H-pyrrolo[2,3-d]pyrimidin-4-yl)-1H-pyrazol-1-yl]azetidin-3-yl}acetonitrile tris(trifluoroacetate)] |

Continued, compound first:

| SMILES | JAK2/JAK1 IC50 ratio (human JAK2; Table 4) | IC50 (human JAK1; Table 4) | JAK2/JAK1 IC50 ratio (human JAK2; Table 5) | IC50 (human JAK1; Table 5) |
| --- | --- | --- | --- | --- |
| CCN(C)Cc1cc(O[C@H]2CC[C@@H](N3CC(CC#N)(n4cc(-c5ncnc6[nH]ccc56)cn4)C3)CC2)nc(C(F)(F)F)n1.O=C(O)C(F)(F)F.O=C(O)C(F)(F)F.O=C(O)C(F)(F)F [Example 8, {1-(cis-4-{[6-{[ethyl(methyl)amino]methyl}-2-(trifluoromethyl)pyrimidin-4-yl]oxy}cyclohexyl)-3-[4-(7H-pyrrolo[2,3-d]pyrimidin-4-yl)-1H-pyrazol-1-yl]azetidin-3-yl}acetonitrile tris(trifluoroacetate)] | ≧10 | < 10 nM | – | – |
| N#CCC1(n2cc(-c3ncnc4[nH]ccc34)cn2)CN([C@H]2CC[C@@H](Oc3cc(CN4CCC4)cc(C(F)(F)F)n3)CC2)C1 [Example 78, {1-(cis-4-{[4-(azetidin-1-ylmethyl)-6-(trifluoromethyl)pyridin-2-yl]oxy}cyclohexyl)-3-[4-(7H-pyrrolo[2,3-d]pyrimidin-4-yl)-1H-pyrazol-1-yl]azetidin-3-yl}acetonitrile tris(trifluoroacetate)] | – | – | ≧10 | < 10 nM |
| N#CCC1(n2cc(-c3ncnc4[nH]ccc34)cn2)CN([C@H]2CC[C@@H](Oc3cc(C(=O)NC4CCC4)cc(C(F)(F)F)n3)CC2)C1 [Example 90, 2-[(cis-4-{3-(cyanomethyl)-3-[4-(7H-pyrrolo[2,3-d]pyrimidin-4-yl)-1H-pyrazol-1-yl]azetidin-1-yl}cyclohexyl)oxy]-N-cyclobutyl-6-(trifluoromethyl)isonicotinamide bis(trifluoroacetate)] | – | – | ≧10 | < 10 nM |
| N#CCC1(n2cc(-c3ncnc4[nH]ccc34)cn2)CN([C@H]2CC[C@@H](Oc3cc(CN4CCC[C@H]4CO)cc(C(F)(F)F)n3)CC2)C1.O=C(O)C(F)(F)F.O=C(O)C(F)(F)F.O=C(O)C(F)(F)F (stereo in doubt) [Example 94, {1-(cis-4-{[4-{[(2S)-2-(hydroxymethyl)pyrrolidin-1-yl]methyl}-6-(trifluoromethyl)pyridin-2-yl]oxy}cyclohexyl)-3-[4-(7H-pyrrolo[2,3-d]pyrimidin-4-yl)-1H-pyrazol-1-yl]azetidin-3-yl}acetonitrile tris(trifluoroacetate)] | – | – | ≧10 | < 10 nM |
| CNC(=O)c1cc(O[C@H]2CC[C@@H](N3CC(CC#N)(n4cc(-c5ncnc6[nH]ccc56)cn4)C3)CC2)nc(C(F)(F)F)c1 [Example 80, 2-[(cis-4-{3-(cyanomethyl)-3-[4-(7H-pyrrolo[2,3-d]pyrimidin-4-yl)-1H-pyrazol-1-yl]azetidin-1-yl}cyclohexyl)oxy]-N-methyl-6-(trifluoromethyl)isonicotinamide bis(trifluoroacetate)] | – | – | ≧10 | < 10 nM |
| CN(C)C(=O)c1cc(O[C@H]2CC[C@@H](N3CC(CC#N)(n4cc(-c5ncnc6[nH]ccc56)cn4)C3)CC2)nc(C(F)(F)F)c1 [Example 81, 2-[(cis-4-{3-(cyanomethyl)-3-[4-(7H-pyrrolo[2,3-d]pyrimidin-4-yl)-1H-pyrazol-1-yl]azetidin-1-yl}cyclohexyl)oxy]-N,N-dimethyl-6-(trifluoromethyl)isonicotinamide bis(trifluoroacetate)] | – | – | ≧10 | < 10 nM |
| N#CCC1(n2cc(-c3ncnc4[nH]ccc34)cn2)CN([C@H]2CC[C@@H](Oc3cc(CN4CC[C@H](O)C4)nc(C(F)(F)F)n3)CC2)C1 [Example 26, {1-(cis-4-{[6-{[(3S)-3-hydroxypyrrolidin-1-yl]methyl}-2-(trifluoromethyl)pyrimidin-4-yl]oxy}cyclohexyl)-3-[4-(7H-pyrrolo[2,3-d]pyrimidin-4-yl)-1H-pyrazol-1-yl]azetidin-3-yl}acetonitrile tris(trifluoroacetate) (salt)] | ≧10 | < 10 nM | – | – |
| CC(C)(C)NCc1cc(O[C@H]2CC[C@@H](N3CC(CC#N)(n4cc(-c5ncnc6[nH]ccc56)cn4)C3)CC2)nc(C(F)(F)F)n1 [Example 44, {1-(cis-4-{[6-[(tert-Butylamino)methyl]-2-(trifluoromethyl)pyrimidin-4-yl]oxy}cyclohexyl)-3-[4-(7H-pyrrolo[2,3-d]pyrimidin-4-yl)-1H-pyrazol-1-yl]azetidin-3-yl}acetonitrile tetrakis(trifluoroacetate)] | ≧10 | < 10 nM | – | – |
| N#CCC1(n2cc(-c3ncnc4[nH]ccc34)cn2)CN([C@H]2CC[C@@H](Oc3cc(CN4CCC[C@@H]4CO)nc(C(F)(F)F)n3)CC2)C1 [Example 29, {1-(cis-4-{[6-{[(2S)-2-(hydroxymethyl)pyrrolidin-1-yl]methyl}-2-(trifluoromethyl)pyrimidin-4-yl]oxy}cyclohexyl)-3-[4-(7H-pyrrolo[2,3-d]pyrimidin-4-yl)-1H-pyrazol-1-yl]azetidin-3-yl}acetonitrile tris(trifluoroacetate) (salt)] | ≧10 | < 10 nM | – | – |
| CC1(NCc2cc(O[C@H]3CC[C@@H](N4CC(CC#N)(n5cc(-c6ncnc7[nH]ccc67)cn5)C4)CC3)nc(C(F)(F)F)n2)CC1.O=C(O)C(F)(F)F.O=C(O)C(F)(F)F.O=C(O)C(F)(F)F [Example 53, {1-(cis-4-{[6-{[(1-methylcyclopropyl)amino]methyl}-2-(trifluoromethyl)pyrimidin-4-yl]oxy}cyclohexyl)-3-[4-(7H-pyrrolo[2,3-d]pyrimidin-4-yl)-1H-pyrazol-1-yl]azetidin-3-yl}acetonitrile tris(trifluoroacetate)] | ≧10 | < 10 nM | – | – |
| CNCc1cc(O[C@H]2CC[C@@H](N3CC(CC#N)(n4cc(-c5ncnc6[nH]ccc56)cn4)C3)CC2)nc(C(F)(F)F)c1 [Example 67, {1-(cis-4-{[4-[(methylamino)methyl]-6-(trifluoromethyl)pyridin-2-yl]oxy}cyclohexyl)-3-[4-(7H-pyrrolo[2,3-d]pyrimidin-4-yl)-1H-pyrazol-1-yl]azetidin-3-yl}acetonitrile tris(trifluoroacetate)] | – | – | ≧10 | < 10 nM |
| N#CCC1(n2cc(-c3ncnc4[nH]ccc34)cn2)CN([C@H]2CC[C@@H](Oc3cc(CN)cc(C(F)(F)F)n3)CC2)C1 [Example 66, {1-(cis-4-{[4-(aminomethyl)-6-(trifluoromethyl)pyridin-2-yl]oxy}cyclohexyl)-3-[4-(7H-pyrrolo[2,3-d]pyrimidin-4-yl)-1H-pyrazol-1-yl]azetidin-3-yl}acetonitrile tris(trifluoroacetate)] | – | – | ≧10 | < 10 nM |
